Patent US5102905A, “Thienyl benzothienyl and dibenzothienyl compounds as inhibitors of aldose reductase” (Imperial Chemical Industries PLC, priority 1988, dated 1992)

Tests used:
aldose reductase [1] = target: T1, aldose reductase (Bos taurus, UniProt P16116); test: in vitro inhibition of partially purified aldose reductase isolated from bovine lenses (spectrophotometric); format: biochemical; conditions: read-out: IC50 in the in vitro test
T1 construct: isolated in known manner from bovine lenses; from tissue; host or cells: bovine lenses
From the text: Thus, in a standard procedure partially purified aldose reductase is isolated in known manner from bovine lenses. The percentage inhibition of this enzyme's ability in vitro to catalyse the reduction of aldoses to polyhydric alcohols, and particularly to reduce glucose or sorbitol, caused by a test compound can then be determined using standard spectrophotometric methods.

aldose reductase [2] = target: T2, aldose reductase (Rattus norvegicus, UniProt P07943); test: in vivo inhibition of aldose reductase in streptozotocin diabetic rats (residual sorbitol levels in eye lenses and/or sciatic nerves); conditions: dosed daily for one, two or five days, read-out: ED50 in the in vivo test
T2 construct: the eye lenses and/or sciatic nerves are removed; from tissue; host or cells: rat eye lenses and/or sciatic nerves (in vivo, streptozotocin-diabetic rats)
Description: Rats are made diabetic (as evidenced by severe glucosuria being present) by dosing with streptozotocin. The animals are then dosed daily with the test compound for one, two or five days. The animals are then sacrificed 2-6 hours after the final dose and the eye lenses and/or sciatic nerves are removed. After a standard work-up procedure the residual sorbitol levels in each tissue are determined by gas liquid chromatography after conversion to the polytrimethylsilyl derivatives. Inhibition of aldose reductase in vivo can then be assessed by comparing the residual sorbitol levels in tissues from the dosed diabetic group of rats with those of an undosed group of diabetic rats and an undosed, normal group of rats.

With `O=[N+]([O-])CS(=O)(=O)c1cccs1` [Example 1, 2-(nitromethylsulphonyl)thiophene] the IC50 (aldose reductase [1]) was 54 nM and the ED50 (aldose reductase [2]) was 2.1 mg/kg.
